Measured values from patent US8772290B2, “Alpha-arylmethoxyacrylate derivative, preparation method thereof, and pharmaceutical composition containing same” (Oscotech Inc., priority 2010, dated 2014).

Each compound was assayed on HIF (assay: Assay for inhibitory activity against HIF activity (HIF1 luciferase reporter cell line)). Settings: HEK293 HIF1 reporter cell line, 1% oxygen, 6 hours, luciferase activity 50% inhibited.
Format: cell-based, human
Excerpt: In order to assay the compounds of the present invention for inhibitory activity against HIF activity, the HIF1 reporter plasmid (Panomics) that is designed to control the expression of luciferase by HIF was employed. The HIF1 reporter plasmid and the pTK-Hyg plasmid (Clontech), which carries a hygromycin resistant gene, were co-transfected into the HEK293 cell line (the Korean Cell Line Bank, KCLB No. 21573), derived from the human kidney, with the aid of Effectene transfection reagent (Qiagen). Then, the cells were cultured for 3 weeks on a medium containing 200 μg/mL hygromycin to select transformants resistant to hygromycin. The cell colonies derived from single cells were transferred to 24-well plates to secure a reporter cell line. The cells were seeded at a density of 4×10^4 cells/well into 96-well plates containing DMEM and incubated for 24 hours before treatment with the compounds of the present invention at a concentration of 25 μM, 5 μM, 1 μM, 200 nM, 40 nM, 8 nM, 1.6 nM, 320 pM, 64 pM, 12.8 pM, 2.56 pM, 512 fM, 102 fM, 20.4 fM, or an amount between any two concentrations above as shown in FIGS. 1A to 1C. Under 1% oxygen condition, the cells were incubated for 6 hours and then, the medium was removed. The cells were lyzed by incubation for 5 min with 100 μL of the mixture of Bright-Glo™ luciferase assay buffer and Bright-Glo™ luciferase assay substrate (Promega). The whole cell lysate was transferred to 96-well, white plates (PerkinElmer) and measured for luminescence using Victor™ 3 (PerkinElmer). From the luminescence measurements, IC50 (a concentration of the compound at which luciferase activity was 50% inhibited) was calculated using the GraphPad Prism™ 4 program. The results are summarized in Table 2 and illustrated in FIGS. 1A to 1C.

| IC50 [nM] | Compound |
| --- | --- |
| 6060 | (E)-methyl 2-(2-((3-hydroxy-5-(2-phenoxyethoxy)phenoxy)methyl)-phenyl)-3-methoxyacrylate [Compound 20] |

Same assay, conditions: Homo sapiens; HEK293 HIF1 reporter cell line, 1% oxygen, 6 hours, luciferase activity 50% inhibited

| Compound | IC50 [nM] |
| --- | --- |
| CO/C=C(/C(=O)OC)c1ccccc1COc1cc(C)c(/C=N/Oc2ccccc2)cc1C [Compound 63, (E)-methyl 2-(2-((2,5-dimethyl-4-((E)-(phenoxyimino)methyl)phenoxy)-methyl)phenyl)-3-methoxyacrylate] | 40 |
| CCCO/N=C/c1cc(F)c(OCc2ccccc2/C(=C\OC)C(=O)OC)c(OC)c1 [Compound 64, (E)-methyl 2-(2-((2-fluoro-6-methoxy-4-((E)-(propoxyimino)methyl)-phenoxy)methyl)phenyl)-3-methoxyacrylate] | 2620 |
| CCCOc1c(F)ccc(OCc2ccccc2/C(=C\OC)C(=O)OC)c1F [Compound 65, (E)-methyl 2-(2-((2,4-difluoro-3-propoxyphenoxy)methyl)phenyl)-3-methoxyacrylate] | 1000 |
| CO/C=C(/C(=O)OC)c1ccccc1COc1c(F)cc(/C=N/OCCc2ccccc2)cc1OC [Compound 66, (E)-methyl 2-(2-((2-fluoro-6-methoxy-4-((E)-(phenethoxyimino)methyl)-phenoxy)methyl)phenyl)-3-methoxyacrylate] | 900 |
| CO/C=C(/C(=O)OC)c1ccccc1COc1ccc(/C=N/OCC2CC2)cc1C [Compound 67, (E)-methyl 2-(2-((4-((E)-(cyclopropylmethoxyimino)methyl)-2-methylphenoxy)methyl)phenyl)-3-methoxyacrylate] | 60 |
| CO/C=C(/C(=O)OC)c1ccccc1COc1cc(C)c(/C=N/OCC2CC2)cc1C [Compound 68, (E)-methyl 2-(2-((4-((E)-(cyclopropylmethoxyimino)methyl)-2,5-dimethylphenoxy)methyl)phenyl)-3-methoxyacrylate] | 7 |
| CO/C=C(/C(=O)OC)c1ccccc1COc1cc(C)c(/C=N/OC2CCCC2)cc1C [Compound 69, (E)-methyl 2-(2-((4-((E)-(cyclopentyloxyimino)methyl)-2,5-dimethylphenoxy)methyl)phenyl)-3-methoxyacrylate] | 30 |
| CO/C=C(/C(=O)OC)c1ccccc1COc1ccc(/C=N/OC2CCCC2)cc1C [Compound 70, (E)-methyl 2-(2-((4-((E)-(cyclopentyloxyimino)methyl)-2-methylphenoxy)methyl)phenyl)-3-methoxyacrylate] | 180 |

The remaining lines, values ahead:

| IC50 [nM] | Compound |
| --- | --- |
| 20 | CO/C=C(/C(=O)OC)c1ccccc1COc1cc(C)c(/C=N/OCCCOc2ccccc2)cc1C [Compound 71, (E)-methyl 2-(2-((2,5-dimethyl-4-((E)-(3-phenoxypropyloxyimino)-methyl)phenoxy)methyl)phenyl)-3-methoxyacrylate] |
| 180 | CO/C=C(/C(=O)OC)c1ccccc1COc1cc(C)c(/C=N/OCc2cccc(OC)c2)cc1C [Compound 72, (E)-methyl 2-(2-((4-((E)-(3-methoxybenzyloxyimino)methyl)-2,5-dimethylphenoxy)methyl)phenyl)-3-methoxyacrylate] |
| 30 | CO/C=C(/C(=O)OC)c1ccccc1COc1cc(C)c(/C=N/OCc2ccccn2)cc1C [Compound 73, (E)-methyl 2-(2-((4-((E)-(pyridin-2-ylmethoxyimino)methyl)-2,5-dimethylphenoxy)methyl)phenyl)-3-methoxyacrylate] |
| 60 | CO/C=C(/C(=O)OC)c1ccccc1COc1cc(C)c(/C=N/OCc2ccncc2)cc1C [Compound 74, (E)-methyl 2-(2-((4-((E)-(pyridin-4-ylmethoxyimino)methyl)-2,5-dimethylphenoxy)methyl)phenyl)-3-methoxyacrylate] |
| 150 | CO/C=C(/C(=O)OC)c1ccccc1COc1cccc(/C=N/OCCOc2ccccc2)c1 [Compound 75, (E)-methyl 2-(2-((3-((E)-(2-phenoxyethoxyimino)methyl)phenoxy)-methyl)phenyl)-3-methoxyacrylate] |
| 1500 | CO/C=C(/C(=O)OC)c1ccccc1COc1cccc(OCCN2CCOCC2)c1 [Compound 76, (E)-methyl 2-(2-((3-(2-morpholinoethoxy)phenoxy)methyl)phenyl)-3-methoxyacrylate] |
| 20 | CO/C=C(/C(=O)OC)c1ccccc1COc1cc(C)c(/C(C)=N/OC)cc1C [Compound 77, (E)-methyl 2-(2-((2,5-dimethyl-4-((E)-1-(methoxyimino)ethyl)phenoxy)-methyl)phenyl)-3-methoxyacrylate] |
| 20 | CCO/N=C(\C)c1cc(C)c(OCc2ccccc2/C(=C\OC)C(=O)OC)cc1C [Compound 78, (E)-methyl 2-(2-((2,5-dimethyl-4-((E)-1-(ethoxyimino)ethyl)phenoxy)-methyl)phenyl)-3-methoxyacrylate] |
| 61 | CO/C=C(/C(=O)OC)c1ccccc1COc1cc(C)c(/C(C)=N/OCc2ccccn2)cc1C [Compound 79, (E)-methyl 2-(2-((2,5-dimethyl-4-((E)-1-(pyridin-2-ylmethoxyimino)-ethyl)phenoxy)methyl)phenyl)-3-methoxyacrylate] |
| 9 | CO/C=C(/C(=O)OC)c1ccccc1COc1cc(C)c(/C(COC)=N/OC)cc1C [Compound 80, (E)-methyl 3-methoxy-2-(2-((4-((Z)-2-methoxy-1-(methoxyimino)ethyl)-2,5-dimethylphenoxy)methyl)phenyl)acrylate] |
| 37 | CO/C=C(/C(=O)OC)c1ccccc1COc1cc(C)c(-c2cnco2)cc1C [Compound 81, (E)-methyl 3-methoxy-2-(2-((2,5-dimethyl-4-(oxazol-5-yl)phenoxy)-methyl)phenyl)acrylate] |
| 2 | CO/C=C(/C(=O)OC)c1ccccc1COc1cc(C)c(-c2ccn(C)n2)cc1C [Compound 82, (E)-methyl 3-methoxy-2-(2-((2,5-dimethyl-4-(1-methyl-1H-pyrazol-3-yl)phenoxy)methyl)phenyl)acrylate] |

Each compound was assayed on tumor-induced angiogenesis (HCT116 cells) (assay: Assay for inhibitory activity against in vivo tumor-induced angiogenesis (intravital microscopy)). Settings: 1 μmol in Matrigel with VEGF and HCT116 cells in abdominal window, four days, t-test p<0.01, FIGS. 4A and 4B.
Set-up: species or system BALB/c mice
Procedure: The inhibitory activity of the compounds of the present invention against angiogenesis was examined in vivo using intravital microscopy. Titanium windows (diameter 19 mm, inner diameter 14 mm, thickness 0.7 mm) were implanted in the abdominal walls male BALB/c mice, 6-8 weeks old, which had been anesthetized. A mixture of 100 μL Matrigel™ 20 ng VEGF, 1×10^5 HCT116 or HCT116 cells, and 1 μmol compound 75 was inserted into the tissues inside the window which was then covered with a cover slip and fixed with a snap ring. Four days later, 50 μL of 25 mg/mL fluorescein isothiocyanate-labeled dextran (Mw 250,000 Sigma) was injected via the tail vein to examine angiogenesis. Mice were then placed on a Zeiss Axiovert™ 200M microscope with a filter set (440-475 nm, excitation wavelength; 530-550 nm, emission wavelength). Fluorescence images were recorded in each window by an electron-multiplying CCD camera (Photon Max™ 521, Princeton Instruments) and digitized for subsequent off-line analysis using the MetaMorph™ program (Universal Imaging). The angiogenesis was scored from 0 (least positive) to 5 (most positive). Observations and degree of angiogenesis are shown in FIGS. 4A and 4B, respectively. […] Accordingly, the compound of the present invention was identified to inhibit angiogenesis in vivo.

| Compound | degree of angiogenesis (score 0 to 5) versus HCT-116 group |
| --- | --- |
| CO/C=C(/C(=O)OC)c1ccccc1COc1cccc(/C=N/OCCOc2ccccc2)c1 [Compound 75, (E)-methyl 2-(2-((3-((E)-(2-phenoxyethoxyimino)methyl)phenoxy)-methyl)phenyl)-3-methoxyacrylate] | significant difference |
